Test results from US10961215B2, “N-aryl and N-heteroaryl piperidine derivatives as liver X receptor beta agonists, compositions, and their use” (Merck Sharp & Dohme Corp., priority 2016, dated 2021).

Key:
[1] = biological target: T1, GST tagged LXRbeta LBD (ligand binding domain) (Homo sapiens, UniProt P55055); assay: LanthaScreen TR-FRET Liver X Receptor Coactivator Assay, LXR beta-LBD (co-activator recruitment; IP and % Emax relative to T0901317); type: biochemical; conditions: for EC50: Inflection Point of co-activator recruitment, LXR beta-LBD, TR-FRET; for Emax: read-out: LXR beta actiivty at max dose (%)
T1 construct: purchased Invitrogen pv4658.pps
T1 sequence (P55055 222-460 limits assumed): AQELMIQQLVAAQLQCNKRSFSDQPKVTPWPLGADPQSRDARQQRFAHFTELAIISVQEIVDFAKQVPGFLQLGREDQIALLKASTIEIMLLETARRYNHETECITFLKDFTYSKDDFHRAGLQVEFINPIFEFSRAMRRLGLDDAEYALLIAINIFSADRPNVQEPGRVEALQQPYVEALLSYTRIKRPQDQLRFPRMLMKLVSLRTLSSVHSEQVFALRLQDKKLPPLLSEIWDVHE
In short: (§1)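 Compounds were first combined with the GST-LBD protein. A premixed fluorescein coactivator peptide and terbium-labelled anti-GST antibody was then added. Plates were incubated at room temperature and TR-FRET measured.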

[2] = biological target: T2, GST tagged LXRalpha LBD (ligand binding domain) (Homo sapiens, UniProt Q13133); assay: LanthaScreen TR-FRET Liver X Receptor Coactivator Assay, LXR alpha-LBD (co-activator recruitment; IP and % Emax relative to T0901317); type: biochemical; conditions: for LXR alpha IP (nM) / EC50: Inflection Point of co-activator recruitment, LXR alpha-LBD, TR-FRET; for Emax: efficacy at max dose in relation to reference T0901317, LXR alpha-LBD, read-out: LXR alpha actiivty at max dose (%)
T2 construct: purchased Invitrogen pv4655
T2 sequence (Q13133 209-447 limits assumed): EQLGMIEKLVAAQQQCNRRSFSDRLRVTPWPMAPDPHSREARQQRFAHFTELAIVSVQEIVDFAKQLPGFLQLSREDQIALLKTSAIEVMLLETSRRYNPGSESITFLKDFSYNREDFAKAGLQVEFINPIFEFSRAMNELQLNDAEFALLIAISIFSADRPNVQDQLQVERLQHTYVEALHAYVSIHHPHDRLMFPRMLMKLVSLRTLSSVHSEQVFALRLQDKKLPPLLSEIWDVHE
In short: as §1

[3] = efficacy at max dose in relation to reference T0901317, LXR beta-LBD

Structure (SMILES)	EC50 [1] [nM]	Emax [1, 3] [%]	LXR alpha IP (nM) [2]	Emax [2] [%]	EC50 [2] [nM]	LXR beta actiivty at max dose (%) [1, 3] [%]
CCc1cccc([C@@](O)(C(=O)NCCCC2CCN(c3ccc(C(=O)N(C)C)c(Cl)n3)CC2)C(F)(F)F)c1 [Example 5-17, (R)-2-chloro-6-(4-(3-(2-(3-ethylphenyl)-3,3,3-trifluoro-2-hydroxypropanamido)propyl)piperidin-1-yl)-N,N-dimethylnicotinamide]	401	43	No IP	0		
CN(C)C(=O)c1ccc(N2CCC(CCCN(C)C(=O)[C@@]3(C(F)(F)F)CCCO3)CC2)nc1Cl [Example 1-7, (R)-2-chloro-N,N-dimethyl-6-(4-(3-(N-methyl-2-(trifluoromethyl)-tetrahydrofuran-2-carboxamido)propyl)piperidin-1-yl)nicotinamide]	144	94		57	2520	
Cc1cccc([C@@](O)(C(=O)N(C)CCCC2CCN(c3ccc(C(=O)N(C)C)c(Cl)n3)CC2)C(F)(F)F)c1 [Example 1-15, (R)-2-chloro-N,N-dimethyl-6-(4-(3-(3,3,3-trifluoro-2-hydroxy-N-methyl-2-m-tolylpropanamido)propyl)piperidin-1-yl)nicotinamide]	76	55	No IP	0		
CC(C)[C@](O)(C(=O)N(C)CCCC1CCN(c2ccc(C(=O)N(C)C)c(Cl)n2)CC1)c1ccccc1 [Example 1-2, (R)-2-chloro-6-(4-(3-(2-hydroxy-N,3-dimethyl-2-phenylbutanamido)propyl)piperidin-1-yl)-N,N-dimethylnicotinamide]	259	68	No IP	16		
CNC(=O)c1ccc(N2CCC(CCCN(C)C(=O)[C@](O)(c3cccc(OC)c3)C(F)(F)F)CC2)nc1Cl [Example 2-11, (R)-2-chloro-N-methyl-6-(4-(3-(3,3,3-trifluoro-2-hydroxy-2-(3-methoxyphenyl)-N-methylpropanamido)propyl)piperidin-1-yl)nicotinamide]	524	60	No IP	13		
CN(C)C(=O)c1ccc(N2CCC(CCCNC(=O)[C@@](O)(c3ccccc3)C(F)(F)F)CC2)nc1Cl [Example 5-9, (S)-2-chloro-N,N-dimethyl-6-(4-(3-(3,3,3-trifluoro-2-hydroxy-2-phenylpropanamido)propyl)piperidin-1-yl) nicotinamide]	165	101		9	2280	
CN(C)C(=O)c1ccc(N2CCC(CCCN(C)C(=O)C(O)(c3ccccc3)C(F)(F)F)CC2)cc1Cl (single isomer, unassigned) [Example 4-4, 2-chloro-N,N-dimethyl-4-(4-(3-(3,3,3-trifluoro-2-hydroxy-N-methyl-2-phenylpropanamido)propyl)piperidin-1-yl)benzamide]	45			14	1580	59
CN(C)C(=O)c1ccc(N2CCC(CCCN(C)C(=O)[C@@](O)(c3ccccc3)C3CCC3)CC2)nc1Cl [Example 1-23, (S)-2-chloro-6-(4-(3-(2-cyclobutyl-2-hydroxy-N-methyl-2-phenylacetamido)propyl)piperidin-1-yl)-N,N-dimethylnicotinamide]	64	90		39	1760	
COc1cccc([C@@](O)(C(=O)N(C)CCCC2CCN(c3ccc(C(=O)N4CC(NC(=O)OC(C)(C)C)C4)c(Cl)n3)CC2)C(F)(F)F)c1 [Example 2-9, (R)-tert-butyl 1-(2-chloro-6-(4-(3-(3,3,3-trifluoro-2-hydroxy-2-(3-methoxyphenyl)-N-methylpropanamido)propyl)piperidin-1-yl)nicotinoyl) azetidin-3-ylcarbamate]	9	65		45	164	
CCOc1cccc([C@@](O)(C(=O)N(C)C[C@@H]2C[C@@H]2C2CCN(c3ccc(C(=O)N(C)C)c(Cl)n3)CC2)C(F)(F)F)c1 [Example 15-1, 2-chloro-6-(4-((1R,2R)-2-(((R)-2-(3-ethoxyphenyl)-3,3,3-trifluoro-2-hydroxy-N-methylpropanamido)methyl)cyclopropyl)piperidin-1-yl)-N,N-dimethylnicotinamide]	34	66	No IP	9		
CN(C)C(=O)c1ccc(N2CCC([C@@H]3C[C@H]3CNC(=O)[C@@](O)(c3ccccc3)C(F)(F)F)CC2)nc1Cl [Example 15-13, 2-chloro-N,N-dimethyl-6-(4-((1S,2R)-2-(((S)-3,3,3-trifluoro-2-hydroxy-2-phenylpropanamido)methyl)cyclopropyl)piperidin-1-yl)nicotinamide]	542	84	No IP	17		
COc1cccc([C@@](O)(C(=O)N(C)CCCC2CCN(c3ccc(C(=O)NC4CC4)c(Cl)n3)CC2)C(F)(F)F)c1 [Example 2-2, (R)-2-chloro-N-cyclopropyl-6-(4-(3-(3,3,3-trifluoro-2-hydroxy-2-(3-methoxyphenyl)-N-methylpropanamido)propyl)piperidin-1-yl)nicotinamide]	688	44	No IP	7		
COc1cccc([C@@](O)(C(=O)NC[C@@H](F)CC2CCN(c3ccc(C(=O)N(C)C)c(Cl)n3)CC2)C(F)(F)F)c1 [Example 3-6]	961	38	No IP	7		
CN(C)C(=O)c1ccc(N2CCC(CCCCN(C)C(=O)C(O)(c3ccccc3)C(F)(F)F)CC2)cc1Cl (centres unmarked) [Example 4-11, 2-chloro-N,N-dimethyl-4-(4-(4-(3,3,3-trifluoro-2-hydroxy-N-methyl-2-phenylpropanamido)butyl)piperidin-1-yl)benzamide]	120	40	No IP	0		
CN(C)C(=O)c1ccc(N2CCC([C@H]3C[C@H]3CN(C)C(=O)[C@](O)(c3cccc(OC(F)(F)F)c3)C(F)(F)F)CC2)nc1Cl [Example 15-4, 2-chloro-N,N-dimethyl-6-(4-((1R,2R)-2-(((R)-3,3,3-trifluoro-2-hydroxy-N-methyl-2-(3-(trifluoromethoxy)phenyl)propanamido)methyl)cyclopropyl)piperidin-1-yl)nicotinamide]	23	50		15	623	
CNC(=O)c1ccc(N2CCC([C@H]3C[C@H]3CNC(=O)[C@](O)(c3cccc(OC)c3)C(F)(F)F)CC2)nc1Cl [Example 15-11, 2-chloro-N-methyl-6-(4-((1R,2R)-2-(((R)-3,3,3-trifluoro-2-hydroxy-2-(3-methoxyphenyl)propanamido)methyl)cyclopropyl)piperidin-1-yl)nicotinamide]	4440	36	No IP	1		
COc1cccc([C@@](O)(C(=O)N(C)[C@H]2C[C@@H](C3CCN(c4ccc(C(=O)N(C)C)c(Cl)n4)CC3)C2)C(F)(F)F)c1 [Example 17-4, cis-2-chloro-N,N-dimethyl-6-(4-(-3-((R)-3,3,3-trifluoro-2-hydroxy-2-(3-methoxyphenyl)-N-methylpropanamido)cyclobutyl)piperidin-1-yl)nicotinamide]	53	39	No IP	13		
CN(C)C(=O)c1ccc(N2CCC([C@H]3C[C@H]3CN(C)C(=O)[C@](O)(c3cccc(OC4CC4)c3)C(F)(F)F)CC2)nc1Cl [Example 15-8, 2-chloro-6-(4-((1R,2R)-2-(((R)-2-(3-cyclopropoxyphenyl)-3,3,3-trifluoro-2-hydroxy-N-methylpropanamido)methyl)cyclopropyl)piperidin-1-yl)-N,N-dimethylnicotinamide]	74	59	No IP	0		
COc1cccc([C@@](O)(C(=O)N(C)CC2CC(C3CCN(c4ccc(C(=O)N(C)C)c(Cl)n4)CC3)C2)C(F)(F)F)c1 (stereo partly drawn) [Example 16-1, (R)-2-chloro-N,N-dimethyl-6-(4-(3-((3,3,3-trifluoro-2-hydroxy-2-(3-methoxyphenyl)-N-methylpropanamido)methyl)cyclobutyl)piperidin-1-yl)nicotinamide]	47	64		36	1400	
CN(C)C(=O)c1ccc(N2CCC3(CC2)CC3CCCNC(=O)[C@](O)(c2ccccc2)C(F)(F)F)cc1Cl (stereo partly drawn) [Example 7-35, 2-chloro-N,N-dimethyl-4-(1-(3-((R)-3,3,3-trifluoro-2-hydroxy-2-phenylpropanamido)propyl)-6-azaspiro[2.5]octan-6-yl)benzamide]	435	46	No IP	0		
